In US11179452B2, “Antigen specific multi epitope vaccines” (priority 2006, dated 2021):
No end group written: not given here.

Assays:
Assay type in all cases: cell-based, human
PBL [1] = assay: Proliferation of PBL, direct presentation of peptide without APC; conditions: for Optimal dose Direct no APC: optimal dose required for PBL activation, six donors; for Optimal dose Direct no APC / Peak of Proliferation (Hours) Direct no APC: average of 5 experiments; for Peak of Proliferation (Hours) Direct no APC: visual inspection daily during 5 days
Description: In all three methods, plates were cultured for 3-5 days under visual control and then 0.5 □Cu/well of 3[H] (Amersham) was added for additional culture of to 18 h at 37° C. […] DC indirect presentation: In the first method, 100 µl of 2×10^6 thawed PBL were placed in U-shape Bottom 96 well plate (Nunc) with RPMI medium supplemented with 5% H AB serum, L-Glutamine, Sodium Pyruvate, MEM-EAGLE non-essential amino-acids, HEPES and Gentamycin. At the next stage 100 µl of 25×10^4 peptide-pulsed DC were added to each three wells of PBL and underwent proliferation analysis as described above. • 2. PBL direct presentation: In the 2nd method, 100 µl of 2×10^6 PBL were placed in Flat Bottom 96 well plates (Corning) and stimulated with different concentrations (0.05 ug/ml-2 ug/ml) of peptides. In the next step the cells underwent proliferation analysis as described above. • 3. PBMC direct presentation: In third method PNMC were used under similar conditions as described for the second method.
Direct presentation of peptides to PBL without any APC

PBL [2] = assay: Proliferation of PBL, DC indirect presentation (peptide-pulsed autologous DC); conditions: for IS (SI of the peptides as indicated in Table 7): one out of five experiments; for IS (SI of the peptides as indicated in Table 7) / Optimal dose via DC: six donors; for Optimal dose via DC: optimal dose required for PBL activation; for Optimal dose via DC / Peak of Proliferation (Hours) via DC: average of 5 experiments; for Peak of Proliferation (Hours) via DC: visual inspection by light microscopy daily during 5 days
Description: (§1) Human PBMC were separated from buffy coat samples of naive donors using Ficoll UNI-SEPmaxi tube. Separated cells were suspended in RPMI medium supplemented with 10% FCS, L-Glutamine, Sodium Pyruvate, MEM-EAGLE non-essential amino-acids, HEPES and Gentamycin Sulphate (Bet-Haemek Industries, IL) and cultivated for 4 h at 37° C. in a culture dish (Corning 150 mm×25 mm). Adherent cells were collected and cultured for 7 days in serum free DCCM-1 medium supplemented with L-Glutamine, huIL-4 (1000 IU/ml) (Cytolab IL) and GM-CSF-80 ug/ml (Cytolab IL). On day seven floating cells were collected and loaded with 50 ug/ml of examined peptide for 18 h at 37° C.
(§2) Proliferation analysis was conducted in three different methods. In all three methods, plates were cultured for 3-5 days under visual control and then 0.5 […]Cu/well of 3[H] (Amersham) was added for additional culture of to 18 h at 37° C. In the last step, plates were harvested and the radioactive counts were measured in a □ counter. • 1. DC indirect presentation: In the first method, 100 µl of 2×10^6 thawed PBL were placed in U-shape Bottom 96 well plate (Nunc) with RPMI medium supplemented with 5% H AB serum, L-Glutamine, Sodium Pyruvate, MEM-EAGLE non-essential amino-acids, HEPES and Gentamycin. At the next stage 100 µl of 25×10^4 peptide-pulsed DC were added to each three wells of PBL and underwent proliferation analysis as described above. • 2. PBL direct presentation: In the 2nd method, 100 µl of 2×10^6 PBL were placed in Flat Bottom 96 well plates (Corning) and stimulated with different concentrations (0.05 ug/ml-2 ug/ml) of peptides. In the next step the cells underwent proliferation analysis as described above. • 3. PBMC direct presentation: In third method PNMC were used under similar conditions as described for the second method.
In the first set of experiments, the 21mer ImMucin, its different 9mer epitopes and other control epitopes (Table 3) were evaluated in proliferation assays with the aim of finding their optimal mode of presentation, stimulated dose as well as their peak of activity (time wise).
To evaluate the most efficient method for priming of PBLs with the different peptides, the following methods were compared:
a. In-direct presentation of the peptide via Autologues-pulsed DC
(§3) Five experiments were performed according to the protocol described in material and methods with buffy-coat enriched PBLs obtained from six different naive donors (obtained from the Israeli blood bank).

PBL [3] = assay: ELISA of cytokine secretion by PBL stimulated once with peptide-pulsed DC; conditions: peptide DC ratio 16:1, one out of five experiments, six donors
Description: as §1
(§4) Cytokine release was studied during the culture of stimulated T-cells. The evaluated samples were collected from the T cell culture medium on day 2, 3, and 5 and stored until use at −20° C.
(§5) […] of the selected capture antibody (e.g. anti-Hu IFN-Gamma, or anti-Hu TNF-alfa or anti IL-2) were added to each well at the final concentration of 5 μg/ml in PBS. Plates were incubated for 2 h at R.T. or over night at 4° C. Next, […] of blocking solution were added for an incubation of 2 h at R.T. […] of evaluated samples were added in duplicate into 2 wells for 2 hours at RT. After 2 h of incubation at R.T plates were washed λ4 times in washing solution. In the next step, a Biotin-conjugated detection antibody (relevant to coated antibody) was added at a final concentration of 10 μg/ml in total volume of 100 μl for 1 h at R.T. Finally, 100 μl/well working dilution (1:10000 in Blocker solution) of Streptavidin-HRP were added to each well and incubated for 1 h at R.T.
(§6) Plates were washed λ6 times with PBS-Tween (0.4%) and 100 μl/well of TMB/E Solution (CHEMICON, Catalog #ES001) was added. The plates were then exposed until blue color appeared in the wells of the positive control and no color was detected in the blank wells. To stop the color reaction, 50 μl/well of 10% of Sulfuric acid was added. The plates were counted in ELISA-Reader using a 450 nm filter.

[4] = system: ImMucin specific T-cell subpopulation; assay: Proliferation of the ImMucin-specific T-cell subpopulation after three stimulations; conditions: one out of two experiments, four donors
From the text: (§7) Thawed PBLs underwent 1st stimulation with ImMucin pulsed Autologues DC at a ratio of 20:1 and cultured for 7 days in dedicated T cell Medium. T cell medium contained RPMI medium supplemented with 10% FCS, L-Glutamine, Sodium Pyruvate, MEM-EAGLE non-essential amino-acids, HEPES and Gentamycin Sulphate (Bet-Haemek Industries, IL) as well as with 50 IU/ml of recombinant IL-7 (Cytolab IL). For the second stimulation, PBL were transferred to adherent autologues ImMucin-pulsed PBMC and cultured for additional 5 days in T cell Medium. At the end of the 5 days, medium was partial replaced with fresh medium containing 1 ug/ml of ImMucin and 50 IU/ml IL-2 for a third stimulation of 48 h at 37° C. Following the last stimulation ImMucin T cell line was checked for immune activation properties.
as §2
(§8) For that purpose, an enriched ImMucin-specific T cell subpopulation was produced via repeated stimulation with ImMucin. The specificity of the subpopulation for ImMucin, as well as to the other VXL epitopes, was examined using proliferation assays, cytokine release assays, FACS analysis in which the percentage and type of cells enriched during the enrichment process was analyzed, and using a CTL assay against selected target cells.
(§9) For producing the specific T cell subpopulation PBL were stimulated three times for 7, 5 and 2 days with ImMucin presented via DC and PBMC. Following the 3rd stimulation the cells were evaluated against the different VXL epitopes.

PBMC = assay: Proliferation, direct presentation of peptide via PBMC (monocytes); conditions: for PBL Index of stimulation (SI) via PBMC: naive donors, representative of 5 experiments; for Peak of Proliferation (Hours) via PBMC: visual inspection daily during 5 days
Description: as §2
b. Direct presentation of the peptides via PBMC i.e. monocytes
as §3

[5] = system: T-Cell specific subpopulation (Clones); assay: ELISA of cytokine secretion by the T-cell specific subpopulation (clones) stimulated with peptides; conditions: two experiments, four donors
From the text: as §7, §4, §5, §6, §8, §9

[6] = average of two healthy donors (Table 11)
[7] = naive donors, representative of 5 experiments
[8] = naive donors, CPM sample / CPM control, representative of 5 experiments

Sequence	PBL Index of stimulation (SI) Direct no APC (PBL [1]; [6])	PBL Index of stimulation (SI) via DC (PBL [2]; [6])	IFN-gamma (PBL [3]) [ng/mL]	TNF-Alfa (PBL [3]) [ng/mL]	IS (Average) [4]	IS (Range) [4]	PBL Index of stimulation (SI) Direct no APC (PBL [1]; [7])	Optimal dose Direct no APC (PBL [1])	Peak of Proliferation (Hours) Direct no APC (PBL [1])	PBL Index of stimulation (SI) via PBMC (PBMC)	Peak of Proliferation (Hours) via PBMC (PBMC; average of 5 experiments)	IL-2 % of clones [5] [%]	IL-2 Range [5] [ng/mL]	INF-gamma % of clones [5] [%]	INF-gamma Range [5] [ng/mL]	TNF-Alfa % of clones [5] [%]	TNF-Alfa Range [5] [ng/mL]	PBL Index of stimulation (SI) via DC (PBL [2]; [8])	Optimal dose via DC (PBL [2])	Peak of Proliferation (Hours) via DC (PBL [2])	also measured
PADREAGVAA WTLKAAA (PADREAGVAAWTLKAAA) [VXL-14, reference compound]	0	2.94	–	–	–	–	–	–	–	–	–	–	–	–	–	–	–	–	–	–	–
SPFFLLLLL [VXL-5, SPFFLLLLL]	–	–	0	14.8	3.575	2.75-4.4	0	No Influence	No proliferation	1.8	48-72 h^	0	0	33	2.75 to 5.5	50	3.84 to 9.2	3.73	12.5-25 × × 10e6/well	48-72 h^	TNF-Alfa (PBL [3]; listed as VXL5): highest cytokine release; IS (SI of the peptides as indicated in Table 7) (PBL [2]): 3.74
STPPVHNV [VXL-6, STPPVHNV, reference compound]	0	1.44	0	0	1.125	1-1.25	0	No Influence	No proliferation	1.53	120 h	0	0	8.3	3.25	50	7.56 to 11.4	1.76	12.5-25 × × 10e6/well	120 h	IL-2 (PBL [3]): 0 ng/mL; Optimal dose via PBMC (PBMC; optimal dose required for PBL activation, average of 5 experiments, six donors): 0.05 to 1 µg/mL
TQSPFFLLL [VXL-4, TQSPFFLLL]	–	–	0	17.1	2.665	2.4-2.93	0	No Influence	No proliferation	1.45	72-96 h^	33	3.8 to 8.7	33	2.6 to 8.4	58	3.1 to 9.8	3.74	12.5-25 × × 10e6/well	72-96 h^	IL-2 (PBL [3]): 0 ng/mL; TNF-Alfa (PBL [3]; listed as VXL4): highest cytokine release; IL-2 Range ng/ml ([5]; listed as VXL4): high; INF-gamma Range ng/ml ([5]; listed as VXL4): high; IS (SI of the peptides as indicated in Table 7) (PBL [2]): 3.4
